Laboratory results reported in article PMC5889738 (Biomaterials, 2018).

Test system: OCI-AML2 cells
Assay: flow cytometry of apoptosis and live-dead cell staining
Format: cell-based, human
Conditions: OCI-AML2, 6 μM, 48 h

## COc1ccc(C2=N[C@@H](c3ccc(Cl)cc3)[C@@H](c3ccc(Cl)cc3)N2C(=O)N2CCNC(=O)C2)c(OC(C)C)c1 [Nutlin-3]
  apoptosis / sensitivity of OCI-AML2: significantly less sensitive
